Active and inactive are the calls of the source. No cut-off for these calls is given here.
How the values were obtained:
Mus musculus [1] = assay: Antidiabetic activity in db/db mouse assessed as decrease in HOMA index at 30 mg/kg administered for 15 consecutive days by oral glucose tolerance test relative to control; assay type: functional; design: scale not given: the % may be the effect or the level left; conditions: time 15 day
Mus musculus [2] = assay: Antidiabetic activity in db/db mouse assessed as decrease in postprandial blood glucose at 30 mg/kg measured after 9 days; assay type: functional, organism-based; conditions: time 9.0 day
[3] = Antioxidant activity assessed as hydroxyl radical scavenging activity at 100 uM incubated for 90 mins by spectrophotometric analysis; assay type: functional
[4] = Antioxidant activity assessed as superoxide anion radical scavenging activity at 100 uM incubated for 30 mins by spectrophotometric analysis; assay type: functional
Syrian golden hamster [5] = assay: Antidyslipidemic activity in Triton-induced hyperlipidemic Syrian golden hamster model assessed as increase in post-heparin lipolytic activity at 50 mg/kg measured after 18 hrs; assay type: functional, Mesocricetus auratus
Syrian golden hamster [6] = assay: Antidyslipidemic activity in Triton-induced hyperlipidemic Syrian golden hamster model assessed as decrease in PL level at 50 mg/kg measured after 18 hrs; assay type: functional, Mesocricetus auratus; design: scale not given: the % may be the effect or the level left
Syrian golden hamster [7] = assay: Antidyslipidemic activity in Triton-induced hyperlipidemic Syrian golden hamster model assessed as decrease in triglyceride level at 50 mg/kg measured after 18 hrs; assay type: functional, Mesocricetus auratus; design: scale not given: the % may be the effect or the level left
Syrian golden hamster [8] = assay: Antidyslipidemic activity in Triton-induced hyperlipidemic Syrian golden hamster model assessed as decrease in total cholesterol level at 50 mg/kg measured after 18 hrs; assay type: functional, Mesocricetus auratus; design: scale not given: the % may be the effect or the level left
Mus musculus [9] = species: Mus musculus; assay: Antidiabetic activity in db/db mouse assessed as increase in Akt phosphorylation incubated for 15 mins by Western blot analysis; assay type: functional, organism-based
Rattus norvegicus [10] = assay: Antidiabetic activity in streptozotocin induced hyperglycemic Wistar rat model assessed as improvement in blood glucose level at 100 mg/kg,po measured upto 24 hrs relative to control; assay type: functional
Rattus norvegicus [11] = assay: Antidiabetic activity in streptozotocin induced hyperglycemic Wistar rat model assessed as improvement in blood glucose level at 100 mg/kg,po measured upto 5 hrs relative to control; assay type: functional
L6 [12] = assay: Induction of GLUT4myc translocation to rat L6 cells surface at 5 to 25 uM incubated for 20 mins followed by insulin stimulation by colorimetric assay; assay type: functional, cell-based; conditions: dose 5-25 µM
L6 [13] = assay: Induction of GLUT4myc translocation to rat L6 cells surface measured after 16 hrs by colorimetric assay; assay type: functional, cell-based; conditions: dose 5-25 µM
Mus musculus [14] = assay: Antidiabetic activity in db/db mouse assessed as decrease in serum insulin levels at 30 mg/kg administered for 15 consecutive days by oral glucose tolerance test relative to control; assay type: functional; design: scale not given: the % may be the effect or the level left; conditions: time 15 day
Mus musculus [15] = assay: Antidiabetic activity in db/db mouse assessed as decrease in fasting blood glucose level at 30 mg/kg administered for 15 consecutive days by oral glucose tolerance test relative to control; assay type: functional; design: scale not given: the % may be the effect or the level left; conditions: time 15 day
Mus musculus [16] = assay: Antidiabetic activity in db/db mouse assessed as decrease in rise of postprandial hyperglycemia at 30 mg/kg measured after 15 days post glucose challenge by oral glucose tolerance test relative to control; assay type: functional; design: scale not given: the % may be the effect or the level left; conditions: time 15 day
Mus musculus [17] = assay: Antidiabetic activity in db/db mouse assessed as decrease in rise of postprandial hyperglycemia at 30 mg/kg measured after 10 days post glucose challenge by oral glucose tolerance test relative to control; assay type: functional; design: scale not given: the % may be the effect or the level left; conditions: time 10 day
Syrian golden hamster [18] = assay: Antidyslipidemic activity in Triton-induced hyperlipidemic Syrian golden hamster model assessed as increase in lecithin-cholesterol acyltransferase level at 50 mg/kg measured after 18 hrs; assay type: functional, Mesocricetus auratus
L6 [19] = assay: Induction of glucose uptake in rat L6 cells expressing GLUT4 myc epitopes at 5 uM incubated for 24 hrs by scintillation counting method relative to control; assay type: functional
L6 [20] = assay: Induction of glucose uptake in rat L6 cells expressing GLUT4 myc epitopes at 10 uM incubated for 24 hrs by scintillation counting method relative to control; assay type: functional
L6 [21] = assay: Cytotoxicity against rat L6 cells assessed as reduction in cell viability at 5 to 100 uM incubated overnight by MTT assay; assay type: toxicity, cell-based; conditions: l6, 100 µM, dose 5-100 µM
L6 [22] = assay: Induction of insulin stimulated glucose uptake in rat L6 cells expressing GLUT4 myc epitopes at 10 uM preincubated for 16 hrs followed by 3 hrs incubation under serum deprived medium prior to insulin stimulation for 20 mins; assay type: functional, cell-based; conditions: time 1160.0 min
Mus musculus [23] = species: Mus musculus; assay: Antidiabetic activity in db/db mouse assessed as increase in GLUT4 level incubated for 15 mins by Western blot analysis; assay type: functional, organism-based
Mus musculus [24] = species: Mus musculus; assay: Antidyslipidemic activity in db/db mouse assessed as decrease in serum triglyceride level measured after 15 days relative to control; assay type: functional; design: scale not given: the % may be the effect or the level left; conditions: time 15 day
Mus musculus [25] = species: Mus musculus; assay: Antidyslipidemic activity in db/db mouse assessed as decrease in serum cholesterol level measured after 15 days relative to control; assay type: functional; design: scale not given: the % may be the effect or the level left; conditions: time 15 day
Mus musculus [26] = species: Mus musculus; assay: Antidyslipidemic activity in db/db mouse assessed as increase in serum HDL-cholesterol level measured after 15 days relative to control; assay type: functional; conditions: time 15 day
Mus musculus [27] = species: Mus musculus; assay: Antidyslipidemic activity in db/db mouse assessed as effect on body weight measured after 9 days; assay type: functional, organism-based; conditions: time 9.0 day

Structure (SMILES): CC1(C)C=Cc2ccc(O)c(C(=O)/C=C/c3ccc4oc(C(=O)c5ccccc5)cc4c3)c2O1
- Activity (Mus musculus [1]): 39.8%
- Activity (Mus musculus [2]): Active
- Activity [3]: 16
- Activity [4]: 18
- Activity (Syrian golden hamster [5]): 24%
- Activity (Syrian golden hamster [6]): 24%
- Activity (Syrian golden hamster [7]): 18%
- Activity (Syrian golden hamster [8]): 21%
- Activity (Mus musculus [9]): Active
- Activity (Rattus norvegicus [10]): 25.1%
- Activity (Rattus norvegicus [11]): 22.8%
- Activity (L6 [12]): Active
- Activity (L6 [13]): Dose-Dependent Effect
- Activity (Mus musculus [14]): 23.8%
- Activity (Mus musculus [15]): 25%
- Activity (Mus musculus [16]): 29.1%
- Activity (Mus musculus [17]): 18.2%
- Activity (Syrian golden hamster [18]): 18%
- Activity (L6 [19]): 82%
- Activity (L6 [20]): 249%
- Activity (L6 [21]): Non-Toxic
- Activity (L6 [22]): inactive
- Activity (Mus musculus [23]): Active
- Activity (Mus musculus [24]): 26.5%
- Activity (Mus musculus [25]): 21%
- Activity (Mus musculus [26]): 45.2%
- Activity (Mus musculus [27]): Active

Source: ChEMBL document CHEMBL5252641, “Design, synthesis, and evaluation of benzofuran-based chromenochalcones for antihyperglycemic and antidyslipidemic activities” (RSC Med Chem, 2023)
